From DBAASP
Values after ≈ are worked out from the molar mass of the structure shown. Values belong to the compound of their own block, whether it stands above or below them.

Columns and labels:
Assay in all cases: ≥ marks a high value that may be exact or a test limit, other limits are often not marked, values filed in µg/mL are converted to µM
Shigella dysenteriae = tested on: Shigella dysenteriae
Staphylococcus aureus = tested on: Staphylococcus aureus
Micrococcus luteus = tested on: Micrococcus luteus
Bacillus subtilis = tested on: Bacillus subtilis
Pseudomonas aeruginosa = tested on: Pseudomonas aeruginosa
[1] = tested on: Staphylococcus epidermidis
Proteus mirabilis = tested on: Proteus mirabilis
Salmonella typhimurium = tested on: Salmonella typhimurium
Escherichia coli = tested on: Escherichia coli
Klebsiella pneumoniae = tested on: Klebsiella pneumoniae
Escherichia coli JW0013 = tested on: Escherichia coli JW0013
[2] = tested on: Clavibacter michiganensis subsp. michiganensis DSM 46294
[3] = tested on: Xanthomonas vesicatoria DSM 50861
[4] = tested on: Pseudomonas corrugata DSM 7228
[5] = tested on: Pseudomonas syringae pv. tomato DC3000
[6] = tested on: Pectobacterium carotovorum subsp. carotovorum DSM 30168
[7] = tested on: Pseudomonas syringae pv. syringae DSM 10604
[8] = tested on: Pseudomonas aeruginosa PAO1
Escherichia coli BL21 = tested on: Escherichia coli BL21

SMILES: CC(C)C[C@H](NC(=O)[C@H](C)NC(=O)CNC(=O)[C@H](CC(C)C)NC(=O)[C@@H](N)Cc1ccccc1)C(=O)N[C@@H](Cc1ccccc1)C(=O)N[C@@H](CCCCN)C(=O)N[C@@H](CCCCN)C(=O)N[C@@H](C)C(=O)N[C@@H](CO)C(=O)N[C@@H](CCCCN)C(=O)O [FLGALFKKASK]
- MIC (Shigella dysenteriae): ≥ 165 µM
- MIC (Staphylococcus aureus): 165 µM (≈ 200 µg/mL)
- MIC (Micrococcus luteus): 10.3 µM (≈ 12.5 µg/mL)
- MIC (Bacillus subtilis): ≥ 82.7 µM
- MIC (Pseudomonas aeruginosa): > 165 µM
- MIC [1]: ≥ 165 µM
- MIC (Proteus mirabilis): ≥ 165 µM
- MIC (Salmonella typhimurium): ≥ 165 µM
- MIC (Escherichia coli): > 165 µM
- MIC (Klebsiella pneumoniae): > 165 µM

SMILES: CC(C)C[C@H](NC(=O)[C@H](C)NC(=O)CNC(=O)[C@H](CC(C)C)NC(=O)[C@@H](N)Cc1ccccc1)C(=O)N[C@@H](Cc1ccccc1)C(=O)N[C@@H](CCCCN)C(=O)N[C@H](C(=O)N[C@@H](C)C(=O)O)C(C)C [FLGALFKVA]
- MIC (Shigella dysenteriae): ≥ 207 µM
- MIC (Staphylococcus aureus): > 207 µM
- MIC (Micrococcus luteus): ≥ 207 µM
- MIC (Bacillus subtilis): ≥ 207 µM
- MIC (Pseudomonas aeruginosa): > 207 µM
- MIC [1]: ≥ 207 µM
- MIC (Proteus mirabilis): ≥ 207 µM
- MIC (Salmonella typhimurium): ≥ 207 µM
- MIC (Escherichia coli): > 207 µM
- MIC (Klebsiella pneumoniae): > 207 µM

SMILES: CC(C)C[C@H](NC(=O)[C@H](C)NC(=O)CNC(=O)[C@H](CC(C)C)NC(=O)[C@@H](N)Cc1ccccc1)C(=O)N[C@@H](Cc1c[nH]c2ccccc12)C(=O)N[C@@H](CCCCN)C(=O)N[C@H](C(=O)N[C@@H](C)C(=O)N[C@@H](CO)C(=O)N[C@@H](CCCCN)C(=O)O)C(C)C [FLGALWKVASK]
- MIC (Shigella dysenteriae): ≥ 164 µM
- MIC (Staphylococcus aureus): 82 µM (≈ 100 µg/mL)
- MIC (Micrococcus luteus): ≥ 164 µM
- MIC (Bacillus subtilis): ≥ 164 µM
- MIC (Pseudomonas aeruginosa): > 164 µM
- MIC [1]: ≥ 164 µM
- MIC (Proteus mirabilis): ≥ 164 µM
- MIC (Salmonella typhimurium): ≥ 164 µM
- MIC (Escherichia coli): 164 µM (≈ 200 µg/mL)
- MIC (Klebsiella pneumoniae): 82 µM (≈ 100 µg/mL)

SMILES: CC[C@H](C)[C@H](NC(=O)[C@H](CCCN=C(N)N)NC(=O)[C@H](CCCN=C(N)N)NC(=O)[C@@H]1CCCN1C(=O)[C@@H]1CCCN1C(=O)[C@H](CCCN=C(N)N)NC(=O)[C@@H]1CCCN1C(=O)[C@H](CCCN=C(N)N)NC(=O)[C@@H]1CCCN1C(=O)[C@H](CC(C)C)NC(=O)[C@H](Cc1ccc(O)cc1)NC(=O)[C@@H]1CCCN1C(=O)[C@@H]1CCCN1C(=O)[C@H](CCCCN)NC(=O)[C@H](CC(=O)O)NC(=O)[C@@H](N)CCCCN)C(=O)N[C@@H](Cc1ccc(O)cc1)C(=O)N[C@@H](CC(N)=O)C(=O)N[C@@H](CCCN=C(N)N)C(N)=O [KDKPPYLPRPRPPRRIYNR]
- MIC (Escherichia coli JW0013): 1.98 µM (≈ 4.8 µg/mL)

SMILES: CC[C@H](C)[C@H](NC(=O)[C@H](C)NC(=O)[C@H](CCCCN)NC(=O)[C@H](C)NC(=O)[C@@H](NC(=O)[C@H](CC(C)C)NC(=O)[C@H](CCCCN)NC(=O)[C@H](CC(C)C)NC(=O)[C@@H](NC(=O)[C@H](CCCCN)NC(=O)[C@@H](NC(=O)[C@H](C)NC(=O)[C@H](CCCCN)NC(=O)[C@H](CCCN=C(N)N)NC(=O)[C@H](CCCN=C(N)N)NC(=O)[C@@H](N)CCCCN)[C@@H](C)CC)[C@@H](C)CC)[C@@H](C)CC)C(=O)N[C@@H](CCCN=C(N)N)C(=O)N[C@@H](CCCCN)C(=O)N[C@@H](CCCCN)C(=O)N[C@@H](CCCN=C(N)N)C(N)=O [KRRKAIKILKLIAKAIRKKR]
- MIC [2]: 0.103 µM (≈ 0.25 µg/mL)
- MIC [3]: 0.0411 µM (≈ 0.0999 µg/mL)
- MIC [4]: 0.103 µM (≈ 0.25 µg/mL)
- MIC [5]: 4.11 µM (≈ 10 µg/mL)
- MIC [6]: 4.11 µM (≈ 10 µg/mL)
- MIC [7]: 4.11 µM (≈ 10 µg/mL)

SMILES: CC(C)C[C@H](NC(=O)[C@H](C)NC(=O)[C@H](Cc1ccccc1)NC(=O)[C@H](CCCN=C(N)N)NC(=O)[C@H](Cc1ccccc1)NC(=O)[C@H](C)NC(=O)[C@H](CCCN=C(N)N)NC(=O)[C@H](Cc1ccccc1)NC(=O)[C@H](C)NC(=O)[C@H](CC(C)C)NC(=O)[C@H](CCCCN)NC(=O)[C@H](CCCN=C(N)N)NC(=O)[C@H](CCCN=C(N)N)NC(=O)[C@@H](N)CCCCN)C(=O)N[C@@H](CCCCN)C(=O)N[C@@H](C)C(=O)N[C@H](C(=O)N[C@@H](CC(C)C)C(=O)N[C@@H](CCCCN)C(=O)N[C@@H](CCCCN)C(N)=O)C(C)C [KRRKLAFRAFRFALKAVLKK]
- MIC [2]: 0.204 µM (≈ 0.5 µg/mL)
- MIC [3]: 0.102 µM (≈ 0.25 µg/mL)
- MIC [4]: 0.102 µM (≈ 0.25 µg/mL)
- MIC [5]: 1.02 µM (≈ 2.5 µg/mL)
- MIC [6]: 4.08 µM (≈ 10 µg/mL)
- MIC [7]: 0.204 µM (≈ 0.5 µg/mL)

Further lines, results first:

- MIC [2]: 0.0414 µM (≈ 0.0999 µg/mL)
- MIC [3]: 0.0414 µM (≈ 0.0999 µg/mL)
- MIC [4]: 0.103 µM (≈ 0.25 µg/mL)
- MIC [5]: 0.414 µM (≈ 1 µg/mL)
- MIC [6]: 4.14 µM (≈ 10 µg/mL)
- MIC [7]: 4.14 µM (≈ 10 µg/mL)
SMILES: CC(C)C[C@H](NC(=O)[C@H](C)NC(=O)[C@H](CC(C)C)NC(=O)[C@H](CCCN=C(N)N)NC(=O)[C@H](CCCN=C(N)N)NC(=O)[C@@H](N)CCCCN)C(=O)N[C@@H](Cc1ccccc1)C(=O)N[C@@H](CCCN=C(N)N)C(=O)N[C@@H](C)C(=O)N[C@@H](Cc1ccccc1)C(=O)N[C@@H](CCCN=C(N)N)C(=O)N[C@@H](CC(C)C)C(=O)N[C@@H](C)C(=O)N[C@@H](CC(C)C)C(=O)N[C@@H](CCCCN)C(=O)N[C@@H](CO)C(=O)N[C@H](C(=O)N[C@@H](CC(C)C)C(=O)N[C@@H](CCCCN)C(=O)N[C@@H](CCCCN)C(N)=O)C(C)C [KRRLALFRAFRLALKSVLKK]

- MIC [2]: 0.146 µM (≈ 0.25 µg/mL)
- MIC [3]: 0.293 µM (≈ 0.5 µg/mL)
- MIC [4]: 0.0586 µM (≈ 0.1 µg/mL)
- MIC [5]: 1.46 µM (≈ 2.5 µg/mL)
- MIC [6]: 5.86 µM (≈ 9.99 µg/mL)
- MIC [7]: 0.0586 µM (≈ 0.1 µg/mL)
SMILES: NCCCC[C@H](NC(=O)[C@H](Cc1ccccc1)NC(=O)[C@H](Cc1ccccc1)NC(=O)[C@H](CCCCN)NC(=O)[C@H](Cc1ccccc1)NC(=O)[C@H](CCCCN)NC(=O)[C@H](CCCCN)NC(=O)[C@H](CCCCN)NC(=O)[C@@H](N)CCCN=C(N)N)C(=O)N[C@@H](CCCN=C(N)N)C(=O)N[C@@H](Cc1ccccc1)C(=O)N[C@@H](Cc1ccccc1)C(N)=O [RKKKFKFFKRFF]

- MIC (Escherichia coli JW0013): 1.99 µM (≈ 4.8 µg/mL)
SMILES: CC[C@H](C)[C@H](NC(=O)[C@H](CCCN=C(N)N)NC(=O)[C@H](CCCN=C(N)N)NC(=O)[C@@H]1CCCN1C(=O)[C@@H]1CCCN1C(=O)[C@H](CCCN=C(N)N)NC(=O)[C@@H]1CCCN1C(=O)[C@H](CCCN=C(N)N)NC(=O)[C@@H]1CCCN1C(=O)[C@H](CC(C)C)NC(=O)[C@H](Cc1ccc(O)cc1)NC(=O)[C@H](CC(N)=O)NC(=O)[C@@H]1CCCN1C(=O)[C@H](CCCCN)NC(=O)[C@H](CC(=O)O)NC(=O)[C@@H](N)C(C)C)C(=O)N[C@@H](Cc1ccc(O)cc1)C(=O)N[C@@H](CC(N)=O)C(=O)N[C@@H](CCCN=C(N)N)C(N)=O [VDKPNYLPRPRPPRRIYNR]

- MIC (Escherichia coli JW0013): 1.28 µM (≈ 3.1 µg/mL)
SMILES: CC[C@H](C)[C@H](NC(=O)[C@H](CCCN=C(N)N)NC(=O)[C@H](CCCN=C(N)N)NC(=O)[C@@H]1CCCN1C(=O)[C@@H]1CCCN1C(=O)[C@H](CCCN=C(N)N)NC(=O)[C@@H]1CCCN1C(=O)[C@H](CCCN=C(N)N)NC(=O)[C@@H]1CCCN1C(=O)[C@H](CC(C)C)NC(=O)[C@H](Cc1ccc(O)cc1)NC(=O)[C@@H]1CCCN1C(=O)[C@H](CCC(N)=O)NC(=O)[C@H](CCCCN)NC(=O)[C@H](CC(=O)O)NC(=O)[C@@H](N)C(C)C)C(=O)N[C@@H](Cc1ccc(O)cc1)C(=O)N[C@@H](CC(N)=O)C(=O)N[C@@H](CCCN=C(N)N)C(N)=O [VDKQPYLPRPRPPRRIYNR]

- MIC (Escherichia coli JW0013): 0.519 µM (≈ 1.3 µg/mL)
SMILES: CC[C@H](C)[C@H](NC(=O)[C@H](CCCN=C(N)N)NC(=O)[C@H](CCCN=C(N)N)NC(=O)[C@@H]1CCCN1C(=O)[C@@H]1CCCN1C(=O)[C@H](CCCN=C(N)N)NC(=O)[C@@H]1CCCN1C(=O)[C@H](CCCN=C(N)N)NC(=O)[C@@H]1CCCN1C(=O)[C@H](CCCCN)NC(=O)[C@H](Cc1ccc(O)cc1)NC(=O)[C@H](Cc1cnc[nH]1)NC(=O)[C@H](CCCN=C(N)N)NC(=O)[C@H](CCCCN)NC(=O)[C@H](CC(=O)O)NC(=O)[C@@H](N)C(C)C)C(=O)N[C@@H](Cc1ccc(O)cc1)C(=O)N[C@@H](CC(N)=O)C(=O)N[C@@H](CCCN=C(N)N)C(N)=O [VDKRHYKPRPRPPRRIYNR]

- MIC [8]: 32 µM (≈ 69.4 µg/mL)
- MIC (Escherichia coli BL21): ≥ 128 µM
SMILES: CC[C@H](C)[C@H](NC(=O)[C@H](C)NC(=O)[C@H](Cc1ccccc1)NC(=O)[C@H](CCCCN)NC(=O)[C@@H](N)C(C)C)C(=O)N[C@@H](CCCCN)C(=O)N[C@@H](CCCCN)C(=O)N[C@H](C(=O)NCC(=O)N[C@@H](CCCCN)C(=O)N[C@@H](CCCCN)C(=O)N[C@@H](C)C(=O)N[C@@H](C)C(=O)N[C@@H](CCCCN)C(=O)N[C@@H](CCCCN)C(=O)N[C@H](C(=O)N[C@H](C(=O)N[C@H](C(=O)N[C@@H](CCCCN)C(=O)N[C@@H](C)C(=O)O)C(C)C)[C@@H](C)CC)C(C)C)[C@@H](C)CC [VKFAIKKIGKKAAKKVIVKA]
